# Columns and labels:
# Format in all cases: in vivo
# Sunflower [1] = test: Test C preemergence; details: visual evaluation after 12 to 14 days
# [2] = tested on: cocklebur (Xanthium strumarium); test: Test B postemergence; details: 13 to 15 days
# Summary of the method: (§1)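 Ratings on a 0 to 100 visual scale (100 complete control) compare treated plants with controls 13 to 15 days after application. Treatments were pre- or postemergence sprays of compound in non-phytotoxic solvent with surfactant.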
# [3] = tested on: lambsquarters (Chenopodium album); test: Test B postemergence; details: 13 to 15 days
# Summary of the method: as §1
# wild oat (Avena fatua) = test: Test B postemergence; details: 13 to 15 days
# Summary of the method: as §1
# [4] = tested on: crabgrass (Digitaria sanguinalis); test: Test B postemergence; details: 13 to 15 days
# Summary of the method: as §1
# [5] = tested on: velvetleaf (Abutilon theophrasti); test: Test C preemergence; details: for Plant response rating (0 to 100), Velvetleaf: visual evaluation after 12 to 14 days
# Summary of the method: (§2)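 Response scores (0 no effect to 100 complete control) came from visual comparison with untreated controls 12 to 14 days after treatment. Preemergence application was made to seeded soil; postemergence, to plants at the 1- to 4-leaf stage.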
# [6] = tested on: bermudagrass (Cynodon dactylon); test: Test C preemergence; details: for Plant response rating (0 to 100 where 0 is no effect and 100 is complete control), Bermudagrass: visual evaluation after 12 to 14 days
# Summary of the method: as §2
# [7] = tested on: giant foxtail (Setaria faberii); test: Test C preemergence; details: for Plant response rating (0 to 100), Foxtail, Giant: visual evaluation after 12 to 14 days
# Summary of the method: as §2
# [8] = tested on: Surinam grass (Brachiaria decumbens); test: Test C preemergence; details: for Plant response rating (0 to 100), Surinam grass: visual evaluation after 12 to 14 days
# Summary of the method: as §2
# [9] = tested on: johnsongrass (Sorghum halepense); test: Test C preemergence; details: for Plant response rating (0 to 100), Johnsongrass: visual evaluation after 12 to 14 days
# Summary of the method: as §2
# Sunflower [10] = test: Test C preemergence
# [11] = tested on: cocklebur (Xanthium strumarium); test: Test C preemergence; details: for Plant response rating (0 to 100), Cocklebur: visual evaluation after 12 to 14 days
# Summary of the method: as §2
# corn (Zea mays) = test: Test C preemergence; details: for Plant response rating (0 to 100), Corn: visual evaluation after 12 to 14 days
# Summary of the method: as §2
# [12] = tested on: pigweed (Amaranthus retroflexus); test: Test C preemergence; details: for Plant response rating (0 to 100), Pigweed: visual evaluation after 12 to 14 days
# Summary of the method: as §2
# [13] = tested on: common ragweed (Ambrosia elatior); test: Test C preemergence; details: for Plant response rating (0 to 100), Ragweed, Common: visual evaluation after 12 to 14 days
# Summary of the method: as §2
# [14] = tested on: lambsquarters (Chenopodium album); test: Test C preemergence; details: for Plant response rating (0 to 100), Lambsquarters: visual evaluation after 12 to 14 days
# Summary of the method: as §2
# Nightshade = test: Test C preemergence
# kochia (Kochia scoparia) = test: Test C preemergence; details: for Plant response rating (0 to 100), Kochia: visual evaluation after 12 to 14 days
# Summary of the method: as §2
# [15] = tested on: woolly cupgrass (Eriochloa villosa); test: Test C preemergence; details: for Plant response rating (0 to 100), Cupgrass, Woolly: visual evaluation after 12 to 14 days
# Summary of the method: as §2
# soybean (Glycine max) = test: Test C preemergence; details: for Plant response rating (0 to 100), Soybean: visual evaluation after 12 to 14 days
# Summary of the method: as §2
# [16] = Rate 125 g/ha, scale 0 (no effect) to 100 (complete control)
# [17] = Rate 500 g/ha, scale 0 to 100, 0 is no effect, 100 is complete control
# [18] = Preemergence, Rate 500 g/ha, scale 0 to 100
# [19] = Rate 62 g/ha, scale 0 to 100, 0 no effect, 100 complete control
# [20] = preemergence, Rate 125 g/ha, scale 0 to 100, 0 no effect, 100 complete control
# [21] = Rate 125 g/ha, scale 0 to 100, 0 no effect, 100 complete control
# [22] = preemergence, Rate 62 g/ha, scale 0 to 100
# [23] = preemergence, Rate 250 g/ha, scale 0 to 100, 0 no effect, 100 complete control
compound,measurement,setting,value
CC(C)c1ccn(C2SCN(c3cccc(OC(F)F)c3)C2=O)n1 (centres unmarked) [Compound 44],"Plant response rating (0 to 100), Sunflower",Sunflower [1]; Rate 250 g/ha,20
same,"Plant response rating, Cocklebur",[2]; [16],20
same,"Plant response rating, Cocklebur",[2]; [17],70
same,"Plant response rating, Lambsquarters",[3]; [16],20
same,"Plant response rating, Lambsquarters",[3]; [17],60
same,"Plant response rating, Wild Oat",wild oat (Avena fatua); [16],0
same,"Plant response rating, Wild Oat",wild oat (Avena fatua); [17],0
same,"Plant response rating, Crabgrass",[4]; [16],0
same,"Plant response rating, Crabgrass",[4]; [17],40
same,"Plant response rating, Velvetleaf",[5]; [18],60
same,"Plant response rating, Velvetleaf",[5]; [19],0
same,"Plant response rating (0 to 100), Velvetleaf","[5]; preemergence, Rate 250 g/ha",20
same,"Plant response rating, Velvetleaf",[5]; [20],0
same,"Plant response rating, Bermudagrass",[6]; [18],100
same,"Plant response rating, Bermudagrass",[6]; [19],90
same,"Plant response rating (0 to 100 where 0 is no effect and 100 is complete control), Bermudagrass","[6]; preemergence, Rate 250 g/ha",100
same,"Plant response rating, Bermudagrass",[6]; [20],100
same,"Plant response rating, Foxtail, Giant",[7]; [18],90
same,"Plant response rating, Foxtail, Giant",[7]; [19],0
same,"Plant response rating (0 to 100), Foxtail, Giant","[7]; preemergence, Rate 250 g/ha",100
same,"Plant response rating, Foxtail, Giant",[7]; [20],100
same,"Plant response rating, Surinam grass",[8]; [18],90
same,"Plant response rating, Surinam grass",[8]; [19],0
same,"Plant response rating (0 to 100), Surinam grass","[8]; preemergence, Rate 250 g/ha",80
same,"Plant response rating, Surinam grass",[8]; [20],80
same,"Plant response rating, Johnsongrass",[9]; [18],100
same,"Plant response rating, Johnsongrass",[9]; [19],0
same,"Plant response rating (0 to 100), Johnsongrass","[9]; preemergence, Rate 250 g/ha",90
same,"Plant response rating, Johnsongrass",[9]; [20],60
same,"Plant response rating, Sunflower",Sunflower [10]; [19],0
same,"Plant response rating, Sunflower","Sunflower [10]; Rate 500 g/ha, scale 0 to 100",30
same,"Plant response rating, Cocklebur",[11]; [18],100
same,"Plant response rating (0 to 100), Cocklebur","[11]; preemergence, Rate 250 g/ha",30
same,"Plant response rating, Cocklebur",[11]; [20],0
same,"Plant response rating, Corn",corn (Zea mays); [18],70
same,"Plant response rating, Corn",corn (Zea mays); [19],0
same,"Plant response rating (0 to 100), Corn","corn (Zea mays); preemergence, Rate 250 g/ha",0
same,"Plant response rating, Corn",corn (Zea mays); [20],0
same,"Plant response rating, Pigweed",[12]; [18],100
same,"Plant response rating, Pigweed",[12]; [19],0
same,"Plant response rating (0 to 100), Pigweed","[12]; preemergence, Rate 250 g/ha",20
same,"Plant response rating, Pigweed",[12]; [20],0
same,"Plant response rating, Ragweed, Common",[13]; [18],50
same,"Plant response rating, Ragweed, Common",[13]; [19],0
same,"Plant response rating (0 to 100), Ragweed, Common","[13]; preemergence, Rate 250 g/ha",50
same,"Plant response rating, Ragweed, Common",[13]; [20],0
same,"Plant response rating, Lambsquarters",[14]; [18],100
same,"Plant response rating, Lambsquarters",[14]; [19],100
same,"Plant response rating (0 to 100), Lambsquarters","[14]; preemergence, Rate 250 g/ha",100
same,"Plant response rating, Lambsquarters",[14]; [20],100
same,"Plant response rating, Nightshade","Nightshade; Rate 62 g/ha; scale 0 to 100, 0 no effect, 100 complete control",0
same,"Plant response rating, Nightshade",Nightshade; [21],0
same,"Plant response rating, Nightshade","Nightshade; Rate 500 g/ha, scale 0 to 100",30
same,"Plant response rating, Kochia",kochia (Kochia scoparia); [18],100
same,"Plant response rating, Kochia",kochia (Kochia scoparia); [19],70
same,"Plant response rating (0 to 100), Kochia","kochia (Kochia scoparia); preemergence, Rate 250 g/ha",100
same,"Plant response rating, Kochia",kochia (Kochia scoparia); [20],100
same,"Plant response rating, Cupgrass, Woolly",[15]; [18],100
same,"Plant response rating, Cupgrass, Woolly",[15]; [19],30
same,"Plant response rating (0 to 100), Cupgrass, Woolly","[15]; preemergence, Rate 250 g/ha",100
same,"Plant response rating, Cupgrass, Woolly",[15]; [20],90
same,"Plant response rating, Soybean",soybean (Glycine max); [18],30
same,"Plant response rating, Soybean",soybean (Glycine max); [19],0
same,"Plant response rating (0 to 100), Soybean","soybean (Glycine max); preemergence, Rate 250 g/ha",30
same,"Plant response rating, Soybean",soybean (Glycine max); [20],0
CCC(CC)c1ccn(C2CCN(c3cccc(OC)c3)C2=O)n1 (centres unmarked) [Compound 96],"Plant response rating (0 to 100), Sunflower",Sunflower [1]; Rate 500 g/ha,50
same,"Plant response rating, Cocklebur",[2]; [16],10
same,"Plant response rating, Cocklebur",[2]; [17],20
same,"Plant response rating, Lambsquarters",[3]; [17],90
same,"Plant response rating, Wild Oat",wild oat (Avena fatua); [17],0
same,"Plant response rating, Crabgrass",[4]; [16],20
same,"Plant response rating, Crabgrass",[4]; [17],70
same,"Plant response rating, Velvetleaf",[5]; [21],0
same,"Plant response rating, Velvetleaf",[5]; [22],0
same,"Plant response rating (0 to 100), Velvetleaf","[5]; preemergence, Rate 500 g/ha",40
same,"Plant response rating, Velvetleaf",[5]; [23],30
same,"Plant response rating, Bermudagrass",[6]; [21],100
same,"Plant response rating, Bermudagrass",[6]; [22],100
same,"Plant response rating (0 to 100 where 0 is no effect and 100 is complete control), Bermudagrass","[6]; preemergence, Rate 500 g/ha",100
same,"Plant response rating, Bermudagrass",[6]; [23],100
same,"Plant response rating, Foxtail, Giant",[7]; [21],0
same,"Plant response rating, Foxtail, Giant",[7]; [22],100
same,"Plant response rating (0 to 100), Foxtail, Giant","[7]; preemergence, Rate 500 g/ha",100
same,"Plant response rating, Foxtail, Giant",[7]; [23],0
same,"Plant response rating, Surinam grass",[8]; [21],90
same,"Plant response rating, Surinam grass",[8]; [22],50
same,"Plant response rating (0 to 100), Surinam grass","[8]; preemergence, Rate 500 g/ha",100
same,"Plant response rating, Surinam grass",[8]; [23],100
same,"Plant response rating, Johnsongrass",[9]; [21],30
same,"Plant response rating, Johnsongrass",[9]; [22],20
same,"Plant response rating (0 to 100), Johnsongrass","[9]; preemergence, Rate 500 g/ha",70
same,"Plant response rating, Johnsongrass",[9]; [23],50
same,"Plant response rating, Sunflower",Sunflower [10]; [21],0
same,"Plant response rating, Cocklebur",[11]; [21],20
same,"Plant response rating, Cocklebur",[11]; [22],0
same,"Plant response rating (0 to 100), Cocklebur","[11]; preemergence, Rate 500 g/ha",30
same,"Plant response rating, Cocklebur",[11]; [23],30
same,"Plant response rating, Corn",corn (Zea mays); [21],20
same,"Plant response rating, Corn",corn (Zea mays); [22],0
same,"Plant response rating (0 to 100), Corn","corn (Zea mays); preemergence, Rate 500 g/ha",50
same,"Plant response rating, Corn",corn (Zea mays); [23],40
same,"Plant response rating, Pigweed",[12]; [21],0
same,"Plant response rating, Pigweed",[12]; [22],0
same,"Plant response rating (0 to 100), Pigweed","[12]; preemergence, Rate 500 g/ha",50
same,"Plant response rating, Pigweed",[12]; [23],0
same,"Plant response rating, Ragweed, Common",[13]; [21],0
same,"Plant response rating, Ragweed, Common",[13]; [22],0
same,"Plant response rating (0 to 100), Ragweed, Common","[13]; preemergence, Rate 500 g/ha",70
same,"Plant response rating, Ragweed, Common",[13]; [23],40
same,"Plant response rating, Lambsquarters",[14]; [21],100
same,"Plant response rating, Lambsquarters",[14]; [22],100
same,"Plant response rating (0 to 100), Lambsquarters","[14]; preemergence, Rate 500 g/ha",100
same,"Plant response rating, Lambsquarters",[14]; [23],100
same,"Plant response rating, Nightshade","Nightshade; Rate 62 g/ha, scale 0 to 100",0
same,"Plant response rating, Nightshade","Nightshade; Rate 125 g/ha; scale 0 to 100, 0 no effect, 100 complete control",10
same,"Plant response rating, Nightshade","Nightshade; Rate 250 g/ha, scale 0 to 100, 0 no effect, 100 complete control",60
same,"Plant response rating, Kochia",kochia (Kochia scoparia); [21],100
same,"Plant response rating, Kochia",kochia (Kochia scoparia); [22],100
same,"Plant response rating (0 to 100), Kochia","kochia (Kochia scoparia); preemergence, Rate 500 g/ha",100
same,"Plant response rating, Kochia",kochia (Kochia scoparia); [23],100
same,"Plant response rating, Cupgrass, Woolly",[15]; [21],95
same,"Plant response rating, Cupgrass, Woolly",[15]; [22],60
same,"Plant response rating (0 to 100), Cupgrass, Woolly","[15]; preemergence, Rate 500 g/ha",100
same,"Plant response rating, Cupgrass, Woolly",[15]; [23],100
same,"Plant response rating, Soybean",soybean (Glycine max); [21],0
same,"Plant response rating, Soybean",soybean (Glycine max); [22],0
same,"Plant response rating (0 to 100), Soybean","soybean (Glycine max); preemergence, Rate 500 g/ha",70
same,"Plant response rating, Soybean",soybean (Glycine max); [23],50
